Measured values published in PMC5717224, “New Hybrid Hydrazinyl Thiazole Substituted Chromones: As Potential α-Amylase Inhibitors and Radical (DPPH & ABTS) Scavengers” (Scientific Reports, 2017).

Legend:
[1] = ABTS free radical cation scavenging assay; conditions: absorbance 734 nm, 30 min incubation; read-out: ABTS radical scavenging activity IC50 ± SEM
Method: The (ABTS+) 2,2ʹ-azino-bis(3-ethylbenzothiazoline-6-sulphonic acid) free radical cation scavenging ability of the compounds was determined by standard method. 7 mM ABTS was dissolved in distilled water and 2.45 mM potassium persulfate was added. The solution was kept in the dark for 12–16 h at room temperature. The sample solutions were prepared in absolute alcohol ranging from 0.01 mg/mL to 1 mg/mL. The samples were added with ABTS solution and incubated for 30 min. The absorbance was taken at 734 nm and the procedure was repeated for ascorbic acid as standard.
(§1) The percentage inhibition of radical scavenging activity was calculated as illustrated, %Inhibition=(AbsorbanceControl−AbsorbanceSample)/AbsorbanceControl×100

[2] = DPPH free radical scavenging assay; conditions: absorbance 517 nm, 20 min incubation; read-out: DPPH radical scavenging activity IC50 ± SEM
Method: The ability of the sample to scavenge, 2-diphenyl-1-picrylhydrazyl (DPPH) free radicals was evaluated by standard method. The sample solutions were prepared in absolute alcohol, ranging from 0.01 mg/mL to 1 mg/mL. A total of 500 μL of sample was added with 500 µL of 2 µmol DPPH solution. After 20 min of incubation, the samples were placed in the dark at room temperature, the absorbance was taken at 517 nm. 500 µL of prepared DDPH solution and 500 µL of absolute alcohol were used as control. The similar procedure was repeated for ascorbic acid as standard[41],[42].
as §1

O=C1O[C@H]([C@@H](O)CO)C(O)=C1O [Ascorbic acid, reference compound]
IC50 [1]: 530 ± 300 nM
IC50 [2]: 330 ± 180 nM

O=Cc1coc2ccccc2c1=O [Compound 1, 4-Oxo-4H-chromene-3-carbaldehyde]
IC50 [1]: 3740 ± 600 nM
IC50 [2]: 2230 ± 790 nM

Cc1ccc2occ(C=O)c(=O)c2c1 [Compound 2, 6-Methyl-4-oxo-4H-chromene-3-carbaldehyde]
IC50 [1]: 2230 ± 60 nM
IC50 [2]: 2230 ± 600 nM
melting point: 173 to 175 °C

NC(=S)N/N=C\c1coc2ccccc2c1=O [Compound 3, (Z)-2-((4-Oxo-4H-chromen-3-yl)methylene) hydrazinecarbothioamide]
IC50 [1]: 1920 ± 90 nM
IC50 [2]: 1900 ± 60 nM
melting point: 240 to 242 °C

Cc1ccc2occ(/C=N\NC(N)=S)c(=O)c2c1 [Compound 4, (Z)-2-((6-Methyl-4-oxo-4H-chromen-3-yl)methylene)hydrazinecarbothioamide]
IC50 [1]: 1260 ± 100 nM
IC50 [2]: 1140 ± 120 nM
melting point: 245 to 247 °C

O=c1c(/C=N\Nc2nc(-c3ccccc3)cs2)coc2ccccc12 [Compound 5, (Z)-3-((2-(4-Phenylthiazol-2-yl)hydrazono)methyl)-4H-chromen-4-one]
IC50 [1]: 1080 ± 150 nM
IC50 [2]: 1110 ± 150 nM
melting point: 223 to 225 °C

O=c1c(/C=N\Nc2nc(-c3cccc(O)c3)cs2)coc2ccccc12 [Compound 6, (Z)-3-((2-(4-(3-Hydroxyphenyl)thiazol-2-yl)hydrazono)methyl)-4H-chromen-4-one]
IC50 [1]: 1892 ± 10 nM
IC50 [2]: 1900 ± 30 nM

O=c1c(/C=N\Nc2nc(-c3ccc(Br)cc3)cs2)coc2ccccc12 [Compound 7, (Z)-3-((2-(4-(4-Bromophenyl)thiazol-2-yl)hydrazono)methyl)-4H-chromen-4-one]
IC50 [1]: 830 ± 250 nM
IC50 [2]: 892 ± 90 nM
melting point: 230 to 232 °C

O=c1c(/C=N\Nc2nc(-c3cccc(Br)c3)cs2)coc2ccccc12 [Compound 8, (Z)-3-((2-(4-(3-Bromophenyl)thiazol-2-yl)hydrazono)methyl)-4H-chromen-4-one]
IC50 [1]: 914 ± 190 nM
IC50 [2]: 912 ± 230 nM
melting point: 225 to 227 °C

O=c1c(/C=N\Nc2nc(-c3ccc(Cl)c(Cl)c3)cs2)coc2ccccc12 [Compound 9, (Z)-3-((2-(4-(3,4-Dichlorophenyl)thiazol-2-yl)hydrazono)methyl)-4H-chromen-4-one]
IC50 [1]: 784 ± 120 nM
IC50 [2]: 314 ± 120 nM
melting point: 245 to 247 °C

O=c1c(/C=N\Nc2nc(-c3ccc(Cl)cc3Cl)cs2)coc2ccccc12 [Compound 10, (Z)-3-((2-(4-(2,4-Dichlorophenyl)thiazol-2-yl)hydrazono)methyl)-4H-chromen-4-one]
IC50 [1]: 677 ± 260 nM
IC50 [2]: 90 ± 170 nM
melting point: 243 to 245 °C

O=c1c(/C=N\Nc2nc(-c3ccc(Cl)cc3)cs2)coc2ccccc12 [Compound 11, (Z)-3-((2-(4-(4-Chlorophenyl)thiazol-2-yl)hydrazono)methyl)-4H-chromen-4-one]
IC50 [1]: 918 ± 140 nM
IC50 [2]: 922 ± 220 nM
melting point: 239 to 241 °C

O=c1c(/C=N\Nc2nc(-c3cccc(Cl)c3)cs2)coc2ccccc12 [Compound 12, (Z)-3-((2-(4-(3-Chlorophenyl)thiazol-2-yl)hydrazono)methyl)-4H-chromen-4-one]
IC50 [1]: 1080 ± 80 nM
IC50 [2]: 1050 ± 30 nM
melting point: 228 to 230 °C

O=c1c(/C=N\Nc2nc(-c3cccc([N+](=O)[O-])c3)cs2)coc2ccccc12 [Compound 13, (Z)-3-((2-(4-(3-Nitrophenyl)thiazol-2-yl)hydrazono)methyl)-4H-chromen-4-one]
IC50 [1]: 1890 ± 50 nM
IC50 [2]: 1740 ± 40 nM
melting point: 235 to 237 °C

N#Cc1ccc(-c2csc(N/N=C\c3coc4ccccc4c3=O)n2)cc1 [Compound 14, (Z)-4-(2-(2-((4-Oxo-4H-chromen-3-yl)methylene)hydrazinyl)thiazol-4-yl)benzonitrile]
IC50 [1]: 1260 ± 70 nM
IC50 [2]: 1290 ± 100 nM
melting point: 225 to 227 °C

O=c1c(/C=N\Nc2nc(-c3ccc(-c4ccccc4)cc3)cs2)coc2ccccc12 [Compound 15, (Z)-3-((2-(4-(Biphenyl-4-yl)thiazol-2-yl)hydrazono)methyl)-4H-chromen-4-one]
IC50 [1]: 1640 ± 40 nM
IC50 [2]: 1410 ± 50 nM
melting point: 234 to 236 °C

Cc1ccc2occ(/C=N\Nc3nc(-c4ccccc4)cs3)c(=O)c2c1 [Compound 16, (Z)-6-Methyl-3-((2-(4-phenylthiazol-2-yl)hydrazono)methyl)-4H-chromen-4-one]
IC50 [1]: 1320 ± 200 nM
IC50 [2]: 1370 ± 200 nM
melting point: 235 to 237 °C

Cc1ccc2occ(/C=N\Nc3nc(-c4cccc(O)c4)cs3)c(=O)c2c1 [Compound 17, (Z)-3-((2-(4-(3-Hydroxyphenyl)thiazol-2-yl)hydrazono)methyl)-6-methyl-4H-chromen-4-one]
IC50 [1]: 1380 ± 50 nM
IC50 [2]: 1340 ± 90 nM
melting point: 237 to 239 °C

Cc1ccc2occ(/C=N\Nc3nc(-c4ccccc4O)cs3)c(=O)c2c1 [Compound 18, (Z)-3-((2-(4-(2-Hydroxyphenyl)thiazol-2-yl)hydrazono)methyl)-6-methyl-4H-chromen-4-one]
IC50 [1]: 1730 ± 50 nM
IC50 [2]: 1660 ± 600 nM
melting point: 230 to 232 °C

Cc1ccc2occ(/C=N\Nc3nc(-c4cccc(Br)c4)cs3)c(=O)c2c1 [Compound 19, (Z)-3-((2-(4-(3-Bromophenyl)thiazol-2-yl)hydrazono)methyl)-6-methyl-4H-chromen-4-one]
IC50 [1]: 584 ± 70 nM
IC50 [2]: 781 ± 180 nM

Cc1ccc2occ(/C=N\Nc3nc(-c4ccc(Br)cc4)cs3)c(=O)c2c1 [Compound 20, (Z)-3-((2-(4-(4-Bromophenyl)thiazol-2-yl)hydrazono)methyl)-6-methyl-4H-chromen-4-one]
IC50 [1]: 660 ± 160 nM
IC50 [2]: 611 ± 290 nM
melting point: 235 to 237 °C

Cc1ccc2occ(/C=N\Nc3nc(-c4ccc(Cl)cc4Cl)cs3)c(=O)c2c1 [Compound 21, (Z)-3-((2-(4-(2,4-Dichlorophenyl)thiazol-2-yl)hydrazono)methyl)-6-methyl-4H-chromen-4-one]
IC50 [1]: 710 ± 90 nM
IC50 [2]: 684 ± 130 nM
melting point: 245 to 247 °C

Cc1ccc2occ(/C=N\Nc3nc(-c4ccc(Cl)c(Cl)c4)cs3)c(=O)c2c1 [Compound 22, (Z)-3-((2-(4-(3,4-Dichlorophenyl)thiazol-2-yl)hydrazono)methyl)-6-methyl-4H-chromen-4-one]
IC50 [1]: 719 ± 100 nM
IC50 [2]: 688 ± 170 nM
melting point: 246 to 248 °C

Cc1ccc2occ(/C=N\Nc3nc(-c4ccc(Cl)cc4)cs3)c(=O)c2c1 [Compound 23, (Z)-3-((2-(4-(4-Chlorophenyl)thiazol-2-yl)hydrazono)methyl)-6-methyl-4H-chromen-4-one]
IC50 [1]: 820 ± 180 nM
IC50 [2]: 840 ± 100 nM
melting point: 245 to 247 °C

Cc1ccc2occ(/C=N\Nc3nc(-c4cccc(Cl)c4)cs3)c(=O)c2c1 [Compound 24, (Z)-3-((2-(4-(3-Chlorophenyl)thiazol-2-yl)hydrazono)methyl)-6-methyl-4H-chromen-4-one]
IC50 [1]: 1020 ± 40 nM
IC50 [2]: 990 ± 120 nM
melting point: 230 to 232 °C

Cc1ccc2occ(/C=N\Nc3nc(-c4cccc([N+](=O)[O-])c4)cs3)c(=O)c2c1 [Compound 25, (Z)-6-Methyl-3-((2-(4-(3-nitrophenyl)thiazol-2-yl)hydrazono)methyl)-4H-chromen-4-one]
IC50 [1]: 1300 ± 110 nM
IC50 [2]: 1310 ± 60 nM
melting point: 240 to 242 °C

Cc1ccc2occ(/C=N\Nc3nc(-c4ccc(C#N)cc4)cs3)c(=O)c2c1 [Compound 26, (Z)-4-(2-(2-((6-Methyl-4-oxo-4H-chromen-3-yl)methylene)hydrazinyl)thiazol-4-yl)benzonitrile]
IC50 [1]: 1280 ± 40 nM
IC50 [2]: 1300 ± 130 nM
melting point: 238 to 240 °C

Cc1ccc2occ(/C=N\Nc3nc(-c4ccc(-c5ccccc5)cc4)cs3)c(=O)c2c1 [Compound 27, (Z)-3-((2-(4-(Biphenyl-4-yl)thiazol-2-yl)hydrazono)methyl)-6-methyl-4H-chromen-4-one]
IC50 [1]: 1290 ± 70 nM
IC50 [2]: 1340 ± 70 nM
melting point: 235 to 237 °C
